Columns and labels:
[1] = test system: PLK-1 mRNA in Hep3B tumors; assay: Hep3B tumor study, PLK-1 mRNA KD in tumor tissue; assay type: in vivo, human; conditions: for PLK1 inhibition %: Hep3B tumor, mouse, i.v., LNP composition as in the source; for % KD: Table 9 experiment
Excerpt: (§1) Formulated siRNAs are made up of double stranded siRNA sequences specific to a target mRNA sequence, and are in the form of lipid nucleotid particles (LNPs) containing cationic lipids, stealth lipids and neutral lipids, as provided in the Examples below. The siRNA construct for use in targeting the liver is specific to Factor VII. The siRNA construct for use in targeting tumors is specific to PLK1-424, which is published by Judge et al., See, J Clin Invest. 2009 March; 119(3):661-73; doi: 10.1172/JCI37515). • 1. FVII siRNA duplex sequence
Hep3B tumors are established in female nude mice by sc injection of 7×10^6 cells in 100 ul PBS into the left flank. Mice are randomized into treatment groups 10-14 days after seeding as tumors reached an average size of 100 mm^3. siRNA formulated LNP formulations are administered at various dose levels intravenously via the lateral tail vein calculated on a mg siRNAs/kg basis according to individual animal weights (10 ml/kg injection volume). Mice are euthanized by CO2 inhalation at various time points and the tumors are harvested for mRNA quantitation. Lipids with a wide range of pKa (5.3-6.6) are used in the LNP formulations. Tumors are measured in 2 dimensions (width×length) to assess tumor growth using digital calipers. Tumor volume is calculated using the equation [a×b×b/2], where a equals the largest diameter and b equals the smallest diameter.
(§2) About 30-50 mg tumor tissue is homogenized in tissue lysis buffer in a Qiagen homogenizer followed by centrifugation to clarify lysates. Total RNA is isolated using RNeasy isolation kit (catalog number 74106) according to the manufacture's protocol. PLK-1 mRNA is analyzed by quantitative PCR and normalized to human GAPDH. Applied Biosystems human PLK-1 gene expression assay Hs00983229_m1 and human GAPDH endogenous control cat number 4326317E are used for mRNA detection.
(§3) The pKa in all tables refers to the pKa of the cationic lipid. Where multiple doses are indicated (e.g., 3×5), the first number indicates the number of doses given and the second number indicates the amount per dose in mg siRNA (biologically active agent) per kg mouse. In general the multiple doses are administered at 24 hour intervals, and tissues for mRNA quantitation are harvested 24 hours after the last dose.

[2] = pKa of the lipid by TNS fluorescence; assay type: physicochemical; conditions: pKa
Procedure, shortened: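 Lipid dissolved in ethanol (2 mM stock) and measured with TNS across eight buffers of differing pH, in water at standard temperature and pressure. Normalized fluorescence intensity plotted against pH and points joined by a smooth line to derive pKa, precise to about 0.2 units.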

[3] = Particle size and PDI by dynamic light scattering (Malvern Zetasizer); assay type: physicochemical; design: Final size: unit not given here; conditions: for Final size: LNP formulation, Table 10
Procedure, shortened: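 Nanoparticles diluted in PBS to a count rate of about 200-400 kcts and measured by dynamic light scattering; size given as intensity-weighted average diameter, with polydispersity index from the same measurement.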

Factor VII = Factor VII activity assay, in vivo liver delivery of FVII siRNA LNP; design: species or system mouse; conditions: dose 1 mg/kg siRNA i.v., ~48 h; lipid/no neutral lipid/CHOL/GM-020 NOF 60/0/36/4, N/P 3
Procedure, shortened: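 Female CD-1 mice (~25 g) given a single i.v. tail-vein dose of FVII siRNA in LNPs (cationic, stealth, neutral lipids), dosed as mg siRNA/kg. Plasma collected ~48 h post-injection; FVII activity read against a standard curve from pooled vehicle-control plasma.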

[4] = test system: PLK-1 mRNA in HepG2 tumors; assay: HepG2 tumor study, PLK-1 mRNA KD in tumor tissue; assay type: in vivo, human; conditions: Mus musculus, HepG2, iv, 24 h, HepG2 tumor in nude mice, 3 × 3 mg/kg siRNA iv, tumors harvested 24 hrs after the last dose; read-out: PLK1 % inhibition
Excerpt: as §1
HepG2 tumors are established in female nude mice by sc injection of 5×10^6 cells in 100 ul PBS into the left flank. Mice are randomized into treatment groups 10-14 days after seeding as tumors reached an average size of 150 mm^3. siRNA formulated LNP formulations are administered at 3×3 mg/kg dose levels intravenously via the lateral tail vein calculated on a mg siRNAs/kg basis according to individual animal weights (10 ml/kg injection volume). Mice are euthanized by CO2 inhalation at various time points and the tumors are harvested 24 hrs after the last dose for mRNA quantitation. Lipids with a wide range of pKa (5.3-6.6) are used in the LNP formulations. Tumors are measured in 2 dimensions (width×length) to assess tumor growth using digital calipers. Tumor volume is calculated using the equation [a×b×b/2], where a=largest diameter and b=smallest diameter.
as §2, §3

[5] = LNP formulation with PLK1 siRNA, helper, neutral and stealth lipid, molar ratio and N/P as in the table, stealth lipid S004, molar ratio 45/43/10/2, N/P 4
[6] = LNP formulation with PLK1 siRNA, helper, neutral and stealth lipid, molar ratio and N/P as in the table, stealth lipid S004, molar ratio 50/48/2, N/P 4
[7] = lipid/no neutral lipid/CHOL/GM-020 NOF 60/0/36/4, N/P 3
[8] = LNP formulation with PLK1 siRNA, helper, neutral and stealth lipid, molar ratio and N/P as in the table
[9] = LNP formulation with PLK1 siRNA, helper, neutral and stealth lipid, molar ratio and N/P as in the table, stealth lipid S004, molar ratio 50/43/5/2, N/P 4

SMILES | PLK1 inhibition % ([1]; 1 × 0.1 mg siRNA/kg) [%] | PLK1 inhibition % ([1]; 1 × 5 mg siRNA/kg) [%] | pKa [2] | Final size [3] | Final size (nm) [3, 7] [nm] | PDI [3, 7] | FVII inhib % (Factor VII) [%] | inhibition at 3 mg/kg [4] [%] | Final size (nm) [3, 8] [nm] | PLK1 inhibition % ([1]; 1 × 1 mg siRNA/kg) [%] | also measured
CCCCC/C=C\C/C=C\CCCCCCCCOCC(CN1CCCCC1)OCCO[C@H]1CC[C@@]2(C)C(=CC[C@H]3[C@@H]4CC[C@H]([C@H](C)CCCC(C)C)[C@@]4(C)CC[C@@H]32)C1 (stereo partly shown) [E0076] | 0 | 85 | 5.85 | 86.03 | 89.47 | 0.143 | 29.3 | 35 | – | – | Final size (nm) [3, 5]: 80.98 nm; Final size (nm) [3, 6]: 86.03 nm; Final size (nm) ([3]; LNP formulation with PLK1 siRNA, helper, neutral and stealth lipid, molar ratio and N/P as in the table, stealth lipid S011, molar ratio 60/38/2, N/P 4): 89.89 nm
CCCCC/C=C\C/C=C\CCCCCCCCOCC(CN1CCCCC1)OCCCOCCCO[C@H]1CC[C@@]2(C)C(=CC[C@H]3[C@@H]4CC[C@H]([C@H](C)CCCC(C)C)[C@@]4(C)CC[C@@H]32)C1 (stereo partly shown) [E0077] | – | 77 | 5.79 | – | 109.8 | 0.127 | 26.8 | – | 120.8 | – | –
CCCCCCCC/C=C\CCCCCCCCOCC(CN1CCOCC1)OCCOCCO[C@H]1CC[C@@]2(C)C(=CC[C@H]3[C@@H]4CC[C@H]([C@H](C)CCCC(C)C)[C@@]4(C)CC[C@@H]32)C1 (stereo partly shown) [E0085] | 53 | 69 | 5.32 | 76.8 | – | – | – | 40 | – | – | PLK1 inhibition % ([1]; 1 × 2 mg siRNA/kg): 62%; PLK1 inhibition % ([1]; 1 × 10 mg siRNA/kg): 55%; Final size (nm) [3, 5]: 76.8 nm; Final size (nm) ([3]; LNP formulation with PLK1 siRNA, helper, neutral and stealth lipid, molar ratio and N/P as in the table, stealth lipid S004, molar ratio 50/38/10/2, N/P 4): 88.33 nm; Final size (nm) [3, 9]: 87.74 nm; Final size (nm) ([3]; LNP formulation with PLK1 siRNA, helper, neutral and stealth lipid, molar ratio and N/P as in the table, stealth lipid S004, molar ratio 50/48/0/2, N/P 4): 96.42 nm; Final size (nm) ([3]; LNP formulation with PLK1 siRNA, helper, neutral and stealth lipid, molar ratio and N/P as in the table, stealth lipid S004, molar ratio 60/38/2, N/P 4): 90.06 nm; Final size (nm) ([3]; LNP formulation with PLK1 siRNA, helper, neutral and stealth lipid, molar ratio and N/P as in the table, stealth lipid S011, molar ratio 40/48/10/2, N/P 4): 81.83 nm
CCCCC/C=C\C/C=C\CCCCCCCCOCC(CN1CCC(OC)C1)OCCCOCCCO[C@H]1CC[C@@]2(C)C(=CC[C@H]3[C@@H]4CC[C@H]([C@H](C)CCCC(C)C)[C@@]4(C)CC[C@@H]32)C1 (stereo partly shown) [E0088] | – | 71 | 5.79 | – | 110.7 | 0.080 | 50.8 | – | 146.2 | – | –
CCCCC/C=C\C/C=C\CCCCCCCCCCOCC(CN1CCCC1C)OCCCOCCCO[C@H]1CC[C@@]2(C)C(=CC[C@H]3[C@@H]4CC[C@H]([C@H](C)CCCC(C)C)[C@@]4(C)CC[C@@H]32)C1 (stereo partly shown) [E0095] | 23 | – | 5.84 | – | 125.1 | 0.091 | 13 | – | 96.09 | – | –
CCCCC/C=C\C/C=C\CCCCCCCCCCOCC(CN1CCCCC1)OCCCOCCCO[C@H]1CC[C@@]2(C)C(=CC[C@H]3[C@@H]4CC[C@H]([C@H](C)CCCC(C)C)[C@@]4(C)CC[C@@H]32)C1 (stereo partly shown) [E0096] | – | – | 5.77 | 94.91 | 128.8 | 0.162 | 14.4 | 17 | – | – | –
CCCCCCCC/C=C\CCCCCCCCOCC(CN1CCCC(C)C1)OCCOCCO[C@H]1CC[C@@]2(C)C(=CC[C@H]3[C@@H]4CC[C@H]([C@H](C)CCCC(C)C)[C@@]4(C)CC[C@@H]32)C1 (stereo partly shown) [E0119] | – | – | 5.82 | 99.37 | – | – | – | 22 | 99.37 | 40 | –
CCCCC/C=C\C/C=C\CCCCCCCCOC[C@@H](CN1CCC[C@@H]1C)OCCCOC(=O)CCC(=O)O[C@H]1CC[C@@]2(C)C(=CCC3C2CC[C@@]2(C)C3CC[C@@H]2[C@H](C)CCCC(C)C)C1 (stereo partly shown) [E0161] | – | – | 6.3 | 101.4 | – | – | – | 0 | 101.4 | 45 | –
CCCCC/C=C\C/C=C\CCCCCCCCOC[C@@H](CN1CCC[C@H]1C)OCCCOC(=O)CCC(=O)O[C@H]1CC[C@@]2(C)C(=CCC3C2CC[C@@]2(C)C3CC[C@@H]2[C@H](C)CCCC(C)C)C1 (stereo partly shown) [E0162] | – | – | 6.07 | 114.4 | – | – | – | 0 | – | – | –
CCCCCCCC/C=C\CCCCCCCCOCC(CN1CCOCC1)OCCOCCNC(=O)O[C@H]1CC[C@@]2(C)C(=CC[C@H]3[C@@H]4CC[C@H]([C@H](C)CCCC(C)C)[C@@]4(C)CC[C@@H]32)C1 (stereo partly shown) [E0175] | – | – | 5.67 | – | – | – | – | 49 | – | – | Final size ([3]; molar ratio 50/43/5/2, N/P 3.8): 93.51; Final size ([3]; molar ratio 60/38/2, N/P 4): 78.74
CCCCC/C=C\C/C=C\CCCCCCCCOCC(CN1CCOCC1)OCCOCCNC(=O)O[C@H]1CC[C@@]2(C)C(=CC[C@H]3[C@@H]4CC[C@H]([C@H](C)CCCC(C)C)[C@@]4(C)CC[C@@H]32)C1 (stereo partly shown) [E0176] | – | – | 5.56 | 99.14 | – | – | – | 37 | 99.14 | 36 | –
CCCCCCCC/C=C\CCCCCCCCOCC(CN1CCCCC1)OCCCOC(=O)CCC(=O)O[C@H]1CC[C@@]2(C)C(=CC[C@H]3[C@@H]4CC[C@H]([C@H](C)CCCC(C)C)[C@@]4(C)CC[C@@H]32)C1 (stereo partly shown) [E0178] | 0 | – | 5.92 | 94.67 | – | – | – | 0 | – | – | % KD ([1]; 0.1 mg/kg): 0%; % KD ([1]; 1.0 mg/kg): 35%; Final size (nm) [3, 9]: 94.67 nm; Final size (nm) [3, 6]: 88.39 nm
CCCCCCCC/C=C\CCCCCCCCOCC(CCN1CCOCC1)OCCOCCO[C@H]1CC[C@@]2(C)C(=CCC3C2CC[C@@]2(C)C3CC[C@@H]2[C@H](C)CCCC(C)C)C1 (stereo partly shown) [E0180] | – | – | – | 77.35 | – | – | – | 0 | 77.35 | 16 | –

Source: patent US9301923B2, “Lipids, lipid compositions, and methods of using them” (NOVARTIS AG, priority 2009, dated 2016)
